Assay: xn = mol fraction of the nth substance listed
Details: Liquid; for mass density: Vibrating wire densiometer; for viscosity: Vibrating wire viscometry

C [methane] + CCCCCCCCCCCCCCCC
Details | mass density [kg/m3] | viscosity [mPa·s]
298.15 K, 10230 kPa, x1 = 0.1013 | 781.6 | 3.304
298.15 K, 19830 kPa, x1 = 0.1013 | 786.5 | 3.687
298.21 K, 20070 kPa, x1 = 0.2976 | 780.7 | 3.712
298.21 K, 30320 kPa, x1 = 0.2976 | 786 | 4.196
298.22 K, 10040 kPa, x1 = 0.2021 | 775.4 | 3.308
298.22 K, 19950 kPa, x1 = 0.2021 | 781.3 | 3.742
298.33 K, 13910 kPa, x1 = 0.3979 | 781.1 | 3.321
298.33 K, 20030 kPa, x1 = 0.3979 | 784.6 | 3.548
298.33 K, 30040 kPa, x1 = 0.3979 | 791 | 3.938
323.22 K, 10080 kPa, x1 = 0.1013 | 765.4 | 1.993
323.22 K, 20170 kPa, x1 = 0.1013 | 771.2 | 2.205
323.22 K, 40020 kPa, x1 = 0.1013 | 783.4 | 2.69
323.22 K, 60000 kPa, x1 = 0.1013 | 791.6 | 3.255
323.22 K, 78560 kPa, x1 = 0.1013 | 801.7 | 3.927
323.23 K, 20400 kPa, x1 = 0.2976 | 769.6 | 2.151
323.23 K, 21720 kPa, x1 = 0.2976 | 770.4 | 2.147
323.23 K, 21740 kPa, x1 = 0.2976 | 770.3 | 2.146
323.23 K, 40220 kPa, x1 = 0.2976 | 781.5 | 2.597
323.23 K, 60040 kPa, x1 = 0.2976 | 791.5 | 3.162
323.23 K, 79910 kPa, x1 = 0.2976 | 800.3 | 3.859
323.26 K, 14530 kPa, x1 = 0.3979 | 763.7 | 1.887
323.26 K, 14750 kPa, x1 = 0.3979 | 763.9 | 1.918
323.26 K, 20040 kPa, x1 = 0.3979 | 766.5 | 2.058
323.26 K, 40050 kPa, x1 = 0.3979 | 778.7 | 2.56
323.32 K, 10010 kPa, x1 = 0.2021 | 756.6 | 1.901
323.32 K, 20100 kPa, x1 = 0.2021 | 763.2 | 2.147
323.32 K, 39150 kPa, x1 = 0.2021 | 775.8 | 2.576
373.2 K, 10050 kPa, x1 = 0.2021 | 721.1 | 0.926
373.2 K, 12610 kPa, x1 = 0.2021 | 723.4 | 0.951
373.2 K, 20020 kPa, x1 = 0.2021 | 729.5 | 1.037
373.2 K, 40260 kPa, x1 = 0.2021 | 744.4 | 1.27
373.2 K, 60350 kPa, x1 = 0.2021 | 757.1 | 1.521
373.2 K, 65050 kPa, x1 = 0.2021 | 759.8 | 1.586
373.26 K, 10000 kPa, x1 = 0.1013 | 732.3 | 0.967
373.26 K, 20170 kPa, x1 = 0.1013 | 740.6 | 1.112
373.26 K, 40110 kPa, x1 = 0.1013 | 754.5 | 1.334
373.26 K, 60080 kPa, x1 = 0.1013 | 767.4 | 1.571
373.26 K, 80130 kPa, x1 = 0.1013 | 777.3 | 1.897
373.41 K, 24090 kPa, x1 = 0.2976 | 738.5 | 1.04
373.41 K, 24100 kPa, x1 = 0.2976 | 738.2 | 1.038
373.41 K, 40140 kPa, x1 = 0.2976 | 749.9 | 1.222
373.41 K, 60030 kPa, x1 = 0.2976 | 762.2 | 1.465
373.41 K, 80100 kPa, x1 = 0.2976 | 773.7 | 1.749
373.47 K, 16680 kPa, x1 = 0.3979 | 730.1 | 0.921
373.47 K, 16740 kPa, x1 = 0.3979 | 729.9 | 0.942
373.47 K, 20010 kPa, x1 = 0.3979 | 732.4 | 0.97
373.47 K, 40020 kPa, x1 = 0.3979 | 747.6 | 1.17
373.47 K, 54720 kPa, x1 = 0.3979 | 756.7 | 1.365
373.47 K, 56030 kPa, x1 = 0.3979 | 757.3 | 1.364
423.24 K, 10310 kPa, x1 = 0.2021 | 686.8 | 0.557
423.24 K, 10870 kPa, x1 = 0.2021 | 687.6 | 0.556
423.24 K, 10900 kPa, x1 = 0.2021 | 687.1 | 0.557
423.24 K, 20030 kPa, x1 = 0.2021 | 697.4 | 0.625
423.24 K, 40040 kPa, x1 = 0.2021 | 715.6 | 0.762
423.24 K, 60080 kPa, x1 = 0.2021 | 730.3 | 0.912
423.24 K, 80150 kPa, x1 = 0.2021 | 743.2 | 1.067
423.31 K, 15700 kPa, x1 = 0.1013 | 707.2 | 0.611
423.31 K, 20010 kPa, x1 = 0.1013 | 711.8 | 0.643
423.31 K, 40030 kPa, x1 = 0.1013 | 728 | 0.816
423.31 K, 60000 kPa, x1 = 0.1013 | 744.5 | –
423.31 K, 80070 kPa, x1 = 0.1013 | 754.2 | 1.133
423.58 K, 20510 kPa, x1 = 0.2976 | 703.1 | 0.612
423.58 K, 20550 kPa, x1 = 0.2976 | 703.3 | 0.606
423.58 K, 22750 kPa, x1 = 0.2976 | 705.4 | 0.618
423.58 K, 40090 kPa, x1 = 0.2976 | 720.8 | 0.734
423.58 K, 60240 kPa, x1 = 0.2976 | 735.9 | 0.873
423.58 K, 80360 kPa, x1 = 0.2976 | 748.5 | 1.03
423.94 K, 16530 kPa, x1 = 0.3979 | 696.8 | 0.565
423.94 K, 16610 kPa, x1 = 0.3979 | 697.1 | 0.555
423.94 K, 20030 kPa, x1 = 0.3979 | 700.1 | 0.587
423.94 K, 40010 kPa, x1 = 0.3979 | 718.3 | 0.717
423.94 K, 56150 kPa, x1 = 0.3979 | 730.8 | 0.822
473.17 K, 40030 kPa, x1 = 0.1013 | 705.1 | 0.591
473.17 K, 60040 kPa, x1 = 0.1013 | 721.8 | 0.687
473.17 K, 80060 kPa, x1 = 0.1013 | 735.5 | 0.794
473.36 K, 12980 kPa, x1 = 0.2021 | 656.9 | 0.388
473.36 K, 13010 kPa, x1 = 0.2021 | 656.8 | 0.387
473.36 K, 20070 kPa, x1 = 0.2021 | 666.6 | 0.425
473.36 K, 40070 kPa, x1 = 0.2021 | 688.4 | 0.53
473.36 K, 60040 kPa, x1 = 0.2021 | 706.1 | 0.627
473.36 K, 80030 kPa, x1 = 0.2021 | 720.5 | 0.732
473.4 K, 24480 kPa, x1 = 0.2976 | 676.6 | 0.431
473.4 K, 24500 kPa, x1 = 0.2976 | 676.6 | 0.427
473.4 K, 40130 kPa, x1 = 0.2976 | 693.5 | 0.501
473.4 K, 60110 kPa, x1 = 0.2976 | 710.7 | 0.6
473.4 K, 79930 kPa, x1 = 0.2976 | 724.7 | 0.717
473.68 K, 22720 kPa, x1 = 0.3979 | 673.5 | 0.42
473.68 K, 25730 kPa, x1 = 0.3979 | 676.9 | 0.435
473.68 K, 40080 kPa, x1 = 0.3979 | 692.4 | 0.502
473.68 K, 60000 kPa, x1 = 0.3979 | 709.8 | 0.596
473.68 K, 80230 kPa, x1 = 0.3979 | 724.2 | 0.704
